Measured values published in patent US20220306630A1, “AGONISTS OF ROR GAMMAt” (BRISTOL-MYERS SQUIBB COMPANY, priority 2019, published 2022).

Target: T1, RORgT (Homo sapiens, UniProt P51449)
T1 construct: Gal4 (fusion partner); expressed in transfected cells; host or cells: engineered Jurkat cells (Jurkat pEx/Gal/hRORγ CLBD/HYG pG5luc/blast)
T1 sequence (P51449 267-516): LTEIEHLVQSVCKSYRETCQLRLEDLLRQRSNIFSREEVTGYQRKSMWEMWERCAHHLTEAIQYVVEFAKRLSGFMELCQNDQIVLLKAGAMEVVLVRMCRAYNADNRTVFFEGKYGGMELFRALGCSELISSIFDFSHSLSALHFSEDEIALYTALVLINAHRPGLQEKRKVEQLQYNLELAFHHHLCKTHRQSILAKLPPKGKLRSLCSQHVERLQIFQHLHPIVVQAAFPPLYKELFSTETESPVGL
Assay: RORgT Gal4 Luciferase Reporter Gene Assay
Format: cell-based
Conditions: engineered Jurkat cells overexpressing RORgT (LBD or full length) with Gal4 Luc reporter; 18 hours at 37° C.; 40 μM to 0.67 nM; read-out: RORg_GAL4 EC50
Method: The compound and the cells were incubated for 18 hours at 37° C. in a cell culture incubator. Cells were then lysed with 15 uL of Steady-Glo Luciferase Assay reagent (Promega EZ550), followed by centrifuging the assay plates at 1500 RPM for 1 minute. Subsequently, the plates were read on the Envision (PerkinElmer). The inhibition of constitutive activity of RORgT achieved by graded concentrations of compound was calculated as a percentage of the luminescence signal window reduction over a control compound.

Row | EC50 [nM] | SMILES
1 | 4.6 | C=C(c1cc(Oc2c(Cl)cc(NC(=O)CC3CCN(S(C)(=O)=O)CC3)cc2Cl)cnc1OC)C(F)(F)F [Example 133]
2 | 235 | COc1ccc(Oc2c(Cl)cc(NC(=O)Cc3ccc[n+]([O-])c3)cc2Cl)cc1C(C)C [Example 237]
3 | 136 | COc1ccc(Oc2c(Cl)cc(NC(=O)Cc3cncnc3)cc2Cl)cc1C(C)C [Example 342]
4 | 3270 | COc1ccc(Oc2c(Cl)cc(NC(=O)c3ccc(S(C)(=O)=O)cc3)cc2Cl)cc1C(C)C [Example 293]
5 | 18 | COc1ccc(Oc2c(Cl)ccc(C(=O)NCc3ccc(S(C)(=O)=O)cc3)c2Cl)cc1C(C)C [Example 79]
6 | 1110 | CCS(=O)(=O)N1CCC(OCC(=O)NCc2ccc(Cl)c(Oc3ccc(OC)c(C(C)C)c3)c2Cl)CC1 [Example 223]
7 | 1280 | COc1ccc(Oc2c(Cl)cc(NC(=O)Cc3cnc(S(C)(=O)=O)cn3)cc2Cl)cc1C(C)C [Example 243]
8 | 9.3 | CC(C)c1cc(F)cc(Oc2c(Cl)ccc(C(=O)NC(C)c3ccc(S(C)(=O)=O)cc3)c2Cl)c1 (stereo not drawn) [Example 140]
9 | 8.5 | COc1ncc(Oc2c(Cl)ccc(CNC(=O)c3ccc(S(C)(=O)=O)cc3)c2Cl)cc1C(C)C [Example 145]
10 | 15 | C=C(C)c1cc(Oc2c(Cl)ccc(C(=O)NCC3CCN(S(C)(=O)=O)CC3)c2Cl)cnc1OC [Example 71]
11 | 109 | COc1ccc(Oc2c(Cl)ccc(C(=O)NCc3ccc(=O)[nH]c3)c2Cl)cc1C(C)C [Example 227, 2,4-dichloro-3-[4-methoxy-3-(propan-2-yl)phenoxy]-N-[(6-oxo-1,6-dihydropyridin-3-yl)methyl]benzamide]
12 | 325 | COc1ccc(Oc2c(Cl)cc(NC(=O)CN3CC[C@@H](NS(C)(=O)=O)C3)cc2Cl)cc1C(C)C [Example 160]
13 | 936 | COC(=O)N1CCC(CNC(=O)c2ccc(Cl)c(Oc3ccc(OC)c(C(C)C)c3)c2Cl)CC1 [Example 111]
14 | 33 | CCS(=O)(=O)N1CCC(CC(=O)Nc2cc(Cl)c(Oc3ccc(OC)c(C(C)C)c3)c(Cl)c2)CC1 [Example 319]
15 | 139 | CC(C)c1cc(F)cc(Oc2c(Cl)ccc(C(=O)NCc3cnn(S(C)(=O)=O)c3)c2Cl)c1 [Example 128]
16 | 541 | COc1ccc(Oc2c(Cl)ccc(CNC(=O)Cc3cccc(S(C)(=O)=O)c3)c2Cl)cc1C(C)C [Example 87]
17 | 237 | CC(C)c1cc(F)cc(Oc2c(Cl)cc(NC(=O)CC3CC(=O)NC(=O)C3)cc2Cl)c1 [Example 330]
18 | 214 | COc1ccc(Oc2c(Cl)ccc(C(=O)n3nc(C)cc3CN)c2Cl)cc1C(C)C [Example 181]
19 | 345 | COc1ccc(Oc2c(Cl)ccc(CNC(=O)CC3CCN(C(=O)C(F)(F)F)CC3)c2Cl)cc1C(C)C [Example 175]
20 | 409 | COc1ccc(Oc2c(Cl)cc3[nH]c(Cc4cccnc4)nc3c2Cl)cc1C(C)C [Example 309]
21 | 860 | COc1ccc(Oc2c(Cl)ccc(C(=O)NC3CCC(O)CC3)c2Cl)cc1C(C)C (stereo not drawn) [Example 197]
22 | 177 | COc1ccc(Oc2c(Cl)cc(NC(=O)CC3CCN(S(=O)(=O)C4CC4)CC3)cc2Cl)cc1C(C)C [Example 320]
23 | 13 | COc1ncc(Oc2c(Cl)cc(NC(=O)CC3CCN(S(N)(=O)=O)CC3)cc2Cl)cc1C(C)C [Example 121]
24 | 207 | COc1ccc(Oc2c(Cl)cc(NC(=O)CC3CCCN(S(C)(=O)=O)C3)cc2Cl)cc1C(C)C (single isomer, unassigned) [Example 42, N-(3,5-dichloro-4-(3-isopropyl-4-methoxyphenoxy)phenyl)-2-(1-(methylsulfonyl)piperidin-3-yl)acetamide]
25 | 866 | COc1ccc(Oc2c(Cl)ccc(C(=O)NC3CCN(Cc4ccccc4)C3)c2Cl)cc1C(C)C (stereo not drawn) [Example 193]
26 | 167 | COc1ccc(Oc2c(Cl)ccc(C(=O)NCC3CCN(S(=O)(=O)C(C)C)CC3)c2Cl)cc1C(C)C [Example 93]
27 | 375 | COc1ccc(Oc2c(Cl)cc(NC(=O)CCC(N)=O)cc2Cl)cc1C(C)C [Example 281]
